Experimental data from article PMC4708624, “The metabolism and de-bromination of bromotyrosine in vivo” (Free Radical Biology & Medicine, 2016).
Like-named read-outs stand apart in the source and are kept apart here.

How the values were obtained:
[1] = design: method as in PMID 17686770; conditions: deuterium-labeled metabolites after infusion of deuterium-labeled chlorotyrosine ref 9; cited from earlier work
[2] = rats; for Molar percentage of the excreted metabolites in 24-h urine (% of infused [D3]bromotyrosine) / Total amounts (nmole) excreted in 24-h urine: intraperitoneal injection of 500 nmole [D3]bromotyrosine
Protocol: ^13C-Labeled internal standard (5 ng) was added to 20 µl of rat urine and diluted to 1 ml of total volume with 0.1 % (v/v) TFA/water (pH 5.0). The samples were extracted using LC18 reverse phase column, as described above. Bromotyrosine and tyrosine were derivatized with ethyl heptafluorobutyrate and silylated with tert-butyldimethylsilyl, as described, [17], [18]. Derivatized samples were dried under nitrogen, and redissolved in 20 µl of n-undecane. Samples were applied to a GC equipped with a 15-m DB-1701 (J&W Scientific, Folsom, CA) capillary column (0.25-mm internal diameter, […]), interfaced with a mass spectrometer (Trio 1000; Fisons Instruments, Beverly, MA). The ion source and interface temperatures were set at 200 and 320 °C, respectively. Samples were analyzed in negative-ion chemical ionization mode with ammonia as the reagent gas, using 1 µl of each sample for injection. The initial column temperature was maintained at 150 °C for 1 min increasing to 300 °C at 20 °C/min. Ions were monitored at 489, 492, and 498 mass units for authentic, [D3] and [^13C9]bromotyrosine, respectively (Table 1). For measurement of tyrosine, samples were monitored at 407, 410 and 415 m/z for authentic, [D3]tyrosine and [^13C9]tyrosine, respectively. Concentrations were calculated by ratio to known ^13C9-labeled internal standards.
^13C-Labeled internal standard (5 ng) was added to 20 µl of rat urine and diluted to 1 ml with 0.1 % (v/v) TFA/water (pH 5.0). The samples were extracted using LC18 reverse-phase column as described above. The samples were derivatized to the pentafluorobenzyl ester by the addition of 20 µl of di-isopropyl ethylamine in acetonitrile and […] of 10 % (v/v) pentafluorobenzyl bromide in acetonitrile for 1 h at room temperature (21–23 °C), dried under nitrogen, and redissolved in […] of n-undecane for GC/MS analysis, [14]. The GC/MS set up was as described above, and ions were monitored at 409, 412, and 417 mass units for authentic, [D3] and [^13C8]bromo-HPA, respectively, with single-ion monitoring (Table 1). For measuring HPA, samples were monitored at 331, 334, and 339 mass units for authentic, [D3] and [^13C8]HPA, respectively. The concentrations were calculated from the known ^13C8-labeled internal standards.
Male Sprague-Dawley rats (n=3 in each group) were given a single intraperitoneal injection of [D3]bromotyrosine (0.50 µmol). The animals were then transferred to standard metabolic cages, and urine samples were collected for 24 h. The levels of deuterated bromotyrosine, tyrosine, bromo-HPA, and HPA were measured in the collected urine samples, as described above.

[3] = target: T1, Iodotyrosine dehalogenase 1 (DEHAL1) (Homo sapiens, UniProt Q6PHW0); test: Dehalogenation of halogenated tyrosines as substrates of DEHAL1 (HPLC); assay type: biochemical; conditions: for Formation of mono-halogenated tyrosine as product of de-halogenation of the di-halogenated substrate by DEHAL1: di-iodotyrosine or di-bromotyrosine 1 μM as substrate; for Formation of mono-halogenated tyrosine as product of de-halogenation of the di-halogenated substrate by DEHAL1 / Substrate converted by DEHAL1: 60 min at 37 °C; for Substrate converted by DEHAL1: substrate 1 μM, NADPH 100 μM, dithiothreitol 10 mM
T1 construct: made in house; host or cells: HEK293 cells transfected with DEHAL1 cDNA in pcDNA3.1; used as cell lysate
T1 sequence (Q6PHW0 1-289): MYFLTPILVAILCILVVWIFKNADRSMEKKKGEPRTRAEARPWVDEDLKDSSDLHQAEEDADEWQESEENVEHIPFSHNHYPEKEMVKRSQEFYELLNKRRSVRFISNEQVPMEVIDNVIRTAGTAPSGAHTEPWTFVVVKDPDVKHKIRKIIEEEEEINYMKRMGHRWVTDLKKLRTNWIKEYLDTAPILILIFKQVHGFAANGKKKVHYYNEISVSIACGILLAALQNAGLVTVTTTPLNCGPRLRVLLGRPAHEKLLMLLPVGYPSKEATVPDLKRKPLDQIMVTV
Protocol: (§1) Iodotyrosine dehalogenase 1 (DEHAL1) was obtained from HEK293 cells transfected with DEHAL1 cDNA, using a pcDNA3.1 expression vector [9], [19]. To determine whether bromotyrosine, di-bromotyrosine or bromo-HPA interact with iodotyrosine dehalogenase, deiodinase activity was measured based on radioiodide formation from [125I]iodotyrosine. Incubation mixtures contained [125I]iodotyrosine (∼100,000 cpm mixed with 0.1 μM unlabeled iodotyrosine), DEHAL1 enzyme, and varying amounts of iodotyrosine, bromotyrosine, di-bromotyrosine, bromp-HPA and tyrosine (0.01–100 μM final concentration) in 100 μl of PBS containing NADPH (100 μM), EDTA (2 mM), and dithiothreitol (10 mM), [19]. Mixtures were incubated in duplicate for 60 min at 37 °C, and the reactions were stopped by addition of 0.9 ml of 10% acetic acid on ice. The radioiodide in the mixture was separated from the remaining [125I]iodotyrosine with ion exchange chromatography on Dowex columns. The columns were washed with 10 % acetic acid and eluted with 8 ml of 1 mM ammonia solution. Blank incubations without enzyme were used to correct for non-enzymatic deiodination. To determine whether bromotyrosine or di-bromotyrosine could act as a substrate of DEHAL1, the brominated or iodinated tyrosine derivatives (1 μM) were incubated with DEHAL1 in 100 μl of PBS containing NADPH (100 μM), EDTA (2 mM), and dithiothreitol (10 mM). Mixtures were then incubated in duplicate for 60 min at 37 °C, and the reaction was stopped by addition of 1 ml of 10 % acetic acid on ice. Substrate levels were measured using HPLC as described. Cell lysates from HEK293 cells transfected with empty pcDNA3.1 plasmid were used as control. In experiments where di-bromotyrosine, or di-iodotyrosine was used as substrate, concentrations of mono-bromotyrosine and mono-iodotyrosine were measured as a product of de-halogenation.

[4] = Incubation of bromo-HPA with rat liver homogenates; assay type: in vitro ADME; conditions: data not shown
[5] = target: T1, Iodotyrosine dehalogenase 1 (DEHAL1); test: Inhibition of DEHAL1 deiodinase activity (radioiodide formation from [125I]iodotyrosine); assay type: biochemical; conditions: 0.01–100 μM, 60 min at 37 °C, NADPH, dithiothreitol
Protocol: as §1

[6] = target: T1, Iodotyrosine dehalogenase 1 (DEHAL1); design: method as in PMID 17686770; conditions: previous report ref 9; cited from earlier work
[7] = Identification of urinary metabolites of di-bromotyrosine in vivo (full scan GC/MS); design: species or system Sprague-Dawley rats; conditions: rats, intraperitoneal 30 µmol, 24 h urine, compared with tyrosine injected animals
Protocol: A similar method used by Ohshima et al. was used for identification of urinary metabolites of di-bromotyrosine. […] Urine was collected in metabolic cages for 24 h. Urine samples were acidified to pH 1.0 with HCl and extracted with an equivalent volume of ethyl acetate.

HepG2 cells = conditions: 24 h with 250 nmoles [D3]bromotyrosine (25 µM, 10 ml)
Protocol: HepG2 cells (ECACC, Wiltshire, UK) were maintained in MEM (minimum Eagle's medium) supplemented with 10% fetal calf serum. Monolayer HepG2 cells were plated in 175 cm^3 vented tissue culture flasks until 70% confluent, when they were incubated with [D3]bromotyrosine (final concentration 25 µM). 24 h after incubation with [D3]bromotyrosine, cells were washed two times with PBS and were detached from the flask using a cell scraper. Detached cells were washed and re-suspended in 2 ml of PBS. Cell suspensions were subjected to protein precipitation by adding 1 ml of ice-cold chloroform/methanol (2:1, v/v) solution. After centrifugation (1000×g for 20 min), protein precipitates were washed with methanol and lyophilized under vacuum for assessment of protein-bound [D3]bromotyrosine and [D3]tyrosine as described [9], [17], [18]. […] The samples were then derivatized with ethyl heptafluorobutyrate and silylated with tert-butyldimethylsilyl, and monitored for ion masses of 492, 498, 410, 415 for [D3]bromotyrosine, [^13C9]bromotyrosine, [D3]tyrosine and [^13C9]tyrosine, respectively (Table 1) using negative-ion chemical ionization GC/MS [9], [17], [18]. […] All data are expressed as mean±standard error.

[8] = Endogenous bromination of HPA: urine monitoring after intraperitoneal [D6]HPA; assay type: in vivo; conditions: healthy rats, intraperitoneal injection of [D6]HPA, data not shown
Description: It is not known, whether or not, bromo-HPA is exclusively derived from the metabolism of bromotyrosine. […] Such reaction may occur for bromotyrosine as well, and needs to be explored in future investigations. Likewise, we previously reported that nitro-HPA is not exclusively derived from nitrotyrosine metabolism, and it is mainly formed by nitration of HPA in both humans and rats, [29]. To determine whether or not bromo-HPA could be formed by endogenous bromination of HPA in healthy rats, deuterium-labeled HPA ([D6]HPA) was synthesized and injected into healthy rats as described. The formation of deuterated bromo-HPA was then monitored in urine samples.

In the case of O=C(O)Cc1ccc(O)cc1 [HPA, 4-hydroxyphenylacetic acid], the “Urinary excretion rate relative to un-metabolized chlorotyrosine” value [1] is listed as 35.6 fold and the “Urinary excretion rate relative to un-metabolized bromotyrosine” value ([2]; deuterium-labeled metabolites, 500 nmole [D3]bromotyrosine) is listed as 10.7 fold.

With [2H]c1cc(O)c([2H])c([2H])c1CC(=O)O [[D3]HPA, [D3]4-hydroxyphenylacetic acid] the “Molar percentage of the excreted metabolites in 24-h urine (% of infused [D3]bromotyrosine)” value [2] was 1.33±0.26%, the “Total amounts (nmole) excreted in 24-h urine” value (from here on “Total amounts (nmole) excreted”) [2] was 6.66 ± 1.33 nmol and the “Molar percentage of the excreted metabolites in 24-h urine (% of infused [D3]bromotyrosine)” value ([2]; listed as [D3]4-hydroxyphenylacetic acid) was ~ 1.3%.

With O=C(O)Cc1ccc(O)c(Br)c1 [bromo-HPA, 3-bromo-4-hydroxyphenylacetic acid] the “Formation of de-brominated products on incubation with DEHAL1” value ([3]; data not shown) was “not associated with formation of de-brominated products”, the “Formation of de-brominated products on incubation with rat liver homogenates” value [4] was “not associated with formation of de-brominated products” and the “Inhibition of DEHAL1-induced deiodinase activity” value (shortened to “Inhibition”) [5] was “Neither tyrosine nor bromo-HPA showed the ability to inhibit deiodination”.

In the case of N[C@@H](Cc1ccc(O)c(Br)c1)C(=O)O [bromotyrosine, 3-bromotyrosine], the “Formation of mono-halogenated tyrosine as product of de-halogenation of the di-halogenated substrate by DEHAL1” value [3] is reported as 3%, the “Substrate converted by DEHAL1” value [3] is reported as 18% and the “Inhibition” value [5] is reported as “could inhibit DEHAL1-induced deiodinase activity in a concentration-dependent manner”.

For O=C(O)Cc1ccc(O)c(Cl)c1 [chloro-HPA, 3-chloro-4-hydroxyphenylacetic acid], the “Urinary excretion rate relative to un-metabolized chlorotyrosine” value [1] is listed as 3.3 fold.

For N[C@@H](Cc1ccc(O)c(Cl)c1)C(=O)O [chlorotyrosine, 3-chlorotyrosine], the “De-chlorination by DEHAL1 in vitro” value [6] is given as “unable to show a significant de-chlorination”.

For N[C@@H](Cc1cc(Br)c(O)c(Br)c1)C(=O)O [di-bromotyrosine, 3,5-di-bromotyrosine], the “Substrate converted by DEHAL1” value [3] was 4%, the Urinary metabolites identified [7] was “di-bromo-HPA and mono-bromo-HPA” and the “Inhibition” value [5] was “could inhibit DEHAL1-induced deiodinase activity in a concentration-dependent manner”.

In the case of N[C@@H](Cc1cc(I)c(O)c(I)c1)C(=O)O [di-iodotyrosine, reference compound], the “Substrate converted by DEHAL1” value [3] is reported as 70%.

With N[C@@H](Cc1ccc(O)c(I)c1)C(=O)O [iodotyrosine, reference compound] the “Formation of mono-halogenated tyrosine as product of de-halogenation of the di-halogenated substrate by DEHAL1” value [3] was 7% and the “Substrate converted by DEHAL1” value [3] was 83%.

For N[C@@H](Cc1ccc(O)cc1)C(=O)O [tyrosine], the “Inhibition” value [5] was “Neither tyrosine nor bromo-HPA showed the ability to inhibit deiodination”.

For [D3]tyrosine, the “[D3]tyrosine detectable in cellular proteins” value (HepG2 cells) was 6.68 ± 0.52 nmol, the “Molar percentage of the excreted metabolites in 24-h urine (% of infused [D3]bromotyrosine)” value [2] was “Undetectable” and the “Total amounts (nmole) excreted” value [2] was “Undetectable”.

For [D5]bromo-HPA, the “Detection of deuterated bromo-HPA in urine” value [8] was “unable to detect”.

For “deuterated 3-bromo-4-hydroxyphenylacetic acid [[D3]Bromo-HPA]”, the “Molar percentage of the excreted metabolites in 24-h urine (% of infused [D3]bromotyrosine)” value [2] was 0.43±0.04%, the “Total amounts (nmole) excreted” value [2] was 2.15 ± 0.21 nmol and the “Molar percentage of the excreted metabolites in 24-h urine (% of infused [D3]bromotyrosine)” value ([2]; listed as [D3]bromo-HPA) was 0.43±0.04%.
